Reference: the supplement of paper PMC5908809

What was measured:
SNK-6 (IL-2 2.5 ng/mL) [1] = test: percent inhibition of viability; higher = more inhibition; details: 72 h
KHYG-1 (IL-2 2.5 ng/mL) [2] = test: as above; details: 72 h
[3] = test system: normal primary NK cells, pool 3 (3 donors) (IL-2 2.5 ng/mL); test: as above; details: 72 h
IMC-1 (IL-2 20 ng/mL) [4] = test: as above; details: 72 h
NK-92 (IL-2 2.5 ng/mL) [5] = test: as above; details: 72 h
[6] = test system: normal primary NK cells, pool 1 (3 donors) (IL-2 2.5 ng/mL); test: as above; details: 72 h
NKL (IL-2 2.5 ng/mL) [7] = test: as above; details: 72 h
[8] = test system: normal primary NK cells, pool 1 (3 donors), resting (IL-2 0 ng/mL); test: as above; details: 72 h
KAI3 (IL-2 2.5 ng/mL) [9] = test: as above; details: 72 h
NK-YS (IL-2 2.5 ng/mL) [10] = test: as above; details: 72 h
DERL-7 (IL-2 2.5 ng/mL) [11] = test: as above; details: 72 h
[12] = test system: normal primary NK cells, pool 2 (3 donors) (IL-2 2.5 ng/mL); test: as above; details: 72 h
YT (IL-2 2.5 ng/mL) [13] = test: as above; details: 72 h
[14] = test system: normal NK cells expanded with K562-aAPC; test: as above; details: 72 h, IL-2 2.5 ng/mL
Procedure: (§1)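 Drug sensitivity and resistance testing on K562-aAPC-expanded normal NK cells: 5 concentrations (10-fold steps over a 10,000-fold range), 72 h at 37 °C, viability by CellTiter-Glo normalised to DMSO and benzethonium chloride controls; DSS from the fitted curve.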

[15] = test system: normal NK cells expanded with K562-aAPC; test: drug sensitivity score (DSS) (DSS units); higher = more sensitive; extreme values may be limits of the assay; details: 72 h; IL-2 2.5 ng/mL
Procedure: as §1

SNK-6 (IL-2 2.5 ng/mL) [16] = test: as above; details: 72 h
KHYG-1 (IL-2 2.5 ng/mL) [17] = test: as above; details: 72 h
[18] = test system: normal primary NK cells, pool 3 (3 donors) (IL-2 2.5 ng/mL); test: as above; details: 72 h
IMC-1 (IL-2 20 ng/mL) [19] = test: as above; details: 72 h
NK-92 (IL-2 2.5 ng/mL) [20] = test: as above; details: 72 h
[21] = test system: normal primary NK cells, pool 1 (3 donors) (IL-2 2.5 ng/mL); test: as above; details: 72 h
NKL (IL-2 2.5 ng/mL) [22] = test: as above; details: 72 h
[23] = test system: normal primary NK cells, pool 1 (3 donors), resting (IL-2 0 ng/mL); test: as above; details: 72 h
KAI3 (IL-2 2.5 ng/mL) [24] = test: as above; details: 72 h
NK-YS (IL-2 2.5 ng/mL) [25] = test: as above; details: 72 h
DERL-7 (IL-2 2.5 ng/mL) [26] = test: as above; details: 72 h
[27] = test system: normal primary NK cells, pool 2 (3 donors) (IL-2 2.5 ng/mL); test: as above; details: 72 h
YT (IL-2 2.5 ng/mL) [28] = test: as above; details: 72 h

C[C@]12C=CC(=O)C=C1CC[C@@H]1[C@@H]2[C@@H](O)C[C@@]2(C)[C@H]1CC[C@]2(O)C(=O)CO [Prednisolone] (max concentration tested 10000 nM)
percent inhibition of viability [%]
Details | 1 nM | 10 nM | 100 nM | 1000 nM | 10000 nM
DERL-7 (IL-2 2.5 ng/mL) [11] | -5.13 | 1.92 | 70 | 98 | 99.5
IMC-1 (IL-2 20 ng/mL) [4] | -3.99 | -3.97 | -9.73 | -19.4 | -17
KAI3 (IL-2 2.5 ng/mL) [9] | -9.17 | -13.6 | -7.78 | -7.77 | -8.06
KHYG-1 (IL-2 2.5 ng/mL) [2] | -5.42 | -2.27 | 10.1 | 29.8 | 34.5
NK-92 (IL-2 2.5 ng/mL) [5] | -16 | -15.5 | -34.4 | -24.4 | -24.4
NK-YS (IL-2 2.5 ng/mL) [10] | -2.75 | -1.1 | -1.97 | -1.53 | 5.33
NKL (IL-2 2.5 ng/mL) [7] | 3.58 | 12 | 48.8 | 51.4 | 55.3
SNK-6 (IL-2 2.5 ng/mL) [1] | 5.43 | 22.4 | 7.45 | 10.2 | 35.9
YT (IL-2 2.5 ng/mL) [13] | -0.96 | 6.16 | 13.1 | 20.2 | 18.8
[3] | -9.31 | -4.01 | 13.1 | 36.8 | 47.6
[6] | 1.14 | 10.2 | 27.4 | 63.4 | 78.3
[8] | 4.52 | 3.57 | 56.8 | 80.2 | 89.9
[12] | -6.45 | -3.01 | 28.6 | 51.2 | 65
[14] | -2.45 | 5 | 39.2 | 57.3 | 63.9

Details | drug sensitivity score
DERL-7 (IL-2 2.5 ng/mL) [26] | 26.2
IMC-1 (IL-2 20 ng/mL) [19] | 0
KAI3 (IL-2 2.5 ng/mL) [24] | 0
KHYG-1 (IL-2 2.5 ng/mL) [17] | 6.17
NK-92 (IL-2 2.5 ng/mL) [20] | 0
NK-YS (IL-2 2.5 ng/mL) [25] | 0
NKL (IL-2 2.5 ng/mL) [22] | 17.5
SNK-6 (IL-2 2.5 ng/mL) [16] | 4.24
YT (IL-2 2.5 ng/mL) [28] | 3.72
[15] | 16.2
[18] | 8.07
[21] | 15.3
[23] | 23
[27] | 13.2
